Test results published in US7879795B2, “Enhancement of tigecycline potency using efflux pump inhibitors” (Mpex Pharmaceuticals, Inc., priority 2004, dated 2011).
Read-outs that look alike come from different tables or passages of the source.

How the values were obtained:
Citrobacter freundii 13 = experiment: Antibiotic MIC with fixed concentration of compound 21, Citrobacter freundii 13; format: cell-based
Description: (§1) To further characterize the clinical potential of tigecycline/EPI combinations, the microbiological activity of tigecycline in combination with compound 21 was investigated using clinical isolates of P. aeruginosa and other gram-negative bacteria. In several experiments, described below, the impact of a fixed concentration of compound 21 (2.5 μg/ml) on susceptibility to tigecycline was determined.
(§2) The impact of compound 21 on the activity of tigecycline against representative members of Enterobacteriacaea was also tested.

Enterobacter cloacae 25 = experiment: Antibiotic MIC with fixed concentration of compound 21, Enterobacter cloacae 25; format: cell-based
[1] = test system: Enterobacter aerogenes 19; experiment: Antibiotic MIC with fixed concentration of compound 21, Enterobacter aerogenes 19; format: cell-based
Klebsiella pneumonia 79 = experiment: Antibiotic MIC with fixed concentration of compound 21, Klebsiella pneumonia 79; format: cell-based
Description: as §1, §2

Klebsiella pneumonia 73 = experiment: Antibiotic MIC with fixed concentration of compound 21, Klebsiella pneumonia 73; format: cell-based
Description: as §1, §2

[2] = Rat serum pharmacokinetics after 2-hour IV infusion; format: in vivo
Description: Rat serum pharmacokinetics of compounds 1, 3, 7, and 21 was evaluated after 2-hour IV infusion of 1 mg/ml EPI solution in 0.9% saline. Total infused dose was 10 mg/kg. FIG. 12 depicts the serum concentrations as a function of time. A two-compartment model was used to fit the data and calculate PK parameters.

[3] = Tissue levels after 2-hour IV infusion in rats; format: in vivo, rat; conditions: for concentration at 6 h: 4 h after end of 2-hour IV infusion; for concentration at 6 h / concentration at 2 h: 10 mg/kg; for 2 h/4 h Ratio: Table 7, 2 h and 6 h; for concentration at 2 h: end of 2-hour IV infusion
Description: Levels of EPIs in various tissues were evaluated after 2-hour IV infusion in rats. The rats received 10 mg/kg IV infusion through FVC. Animals were divided into 2 groups: group 1 was sacrificed immediately after the end of infusion and group 2, 2 h or 4 h after the end of infusion. Tissues from each animal were collected, homogenized and compounds were extracted. Tissues were mixed with saline at 1:1 ratio (v/w) in 12×75 mm polypropylene round bottom tubes. The mixtures were homogenized with a Polytron homogenizer (on ice, 3×10-15 seconds with 30 seconds intervals at the setting of 7). 50 μl of homogenized tissue were immediately transferred to an Eppendorf tube and 2-volumes of 4% TCA were added. After vortexing for 30 seconds, the tubes were centrifuged in a microfuge at top speed (13.2 k rpm) for 5 minutes. The supernatant was collected, and 45 μl of the supernatant was transferred to a glass LC/MS/MS vial (Kimble, 11 mm, 1.5 ml) for analysis, which allowed determination of tissue levels of EPIs at the end of the infusion and 2 h or 4 h later.

PAM1723 = conditions: for stability in rat serum: summary of Table 4, in words
Description: Stability in rat and human serum was also evaluated using a bioassay. 320 μg/ml of the test compound was treated with 50% serum for 4 hours.
Bioassays as described in Example 62 and Example 65 were used to evaluate the stability of various compounds in serum and rabbit kidney homogenates.

[4] = test system: strain PAM1723 of P. aeruginosa; format: in vitro ADME
Description: Stability of compounds was also evaluated using a bioassay. The test compound at 320 μg/ml was treated with rabbit kidney supernatant for 0, 0.5, 1 and 2 hours.

[5] = test system: P. aeruginosa, PAM1723, overexpressing the MexAB-OprM efflux pump; experiment: Levofloxacin potentiation checkerboard assay (broth microdilution); format: cell-based
Description: Stock solution was stored at −80° C.
The checkerboard assay was performed in microtiter plates. […] EPIs were diluted in the y axis, each row containing an equal concentration of an EPI. The result of these manipulations was that each well of the microtiter plate contains a unique combination of concentrations of the two agents. The assay was performed in MHB with a final bacterial inoculum of 5×10^5 CFU/ml (from an early-log phase culture). Microtiter plates were incubated during 20 h at 35° C. and were read using a microtiterplate reader (Molecular Devices) at 650 nm as well as visual observation using a microtiter plate-reading mirror.

[6] = Tissue levels in rat six-hour after 8.4 mg/kg IV bolus; format: in vivo; conditions: rat kidney, liver and lung; 8.4 mg/kg IV bolus; in words
Description: Tissue levels of compounds 1, 2, 3 and 4 were evaluated in kidney, liver and lung six-hour after 8.4 mg/kg IV bolus administration. FIG. 13 depicts the levels as a function of time.
Compound 67, which is the expected metabolite of proteolytic intracellular degradation of compound 3, was detected in rat tissues after IV infusion, confirming the tissue-specific degradation of compound 3 (Tables 9A, B).

[7] = In vitro stability in rat serum and tissue homogenates (LC/MS/MS); format: in vitro ADME; conditions: in words
Description: To test the stability of the compounds in vitro, samples were prepared and analyzed by LC/MS/MS according to the following procedure.
Homogenization: A chunk of fresh tissue was weighed and mixed with saline at 1:1 ratio (w/v) in a 12×75 mm polypropylene round bottom tube. The mixture was homogenized with a Polytron homogenizer (on ice, 3×10 seconds with 10 second intervals at the setting of 7).
Incubation and TCA-precipitation: An appropriate amount of a tissue homogenate was pre-warmed at 37° C. for 2 minutes in an Eppendorf tube. The compound to be tested was added to the tube to a final concentration of 2 μg/ml, mixed, and a 60 μl aliquot was immediately taken (as 0 hour sample) and mixed with 120 μl of 4% TCA (trichloroacetic acid) in an Eppendorf tube. The temperature of the tube containing the rest of the tissue sample was returned to 37° C. for incubation. Later, samples were taken as scheduled and mixed with TCA as described above. Plasma and lavage samples were directly incubated with the compounds without addition of saline and homogenization.
LC/MS/MS sample vial preparation: TCA-precipitated sample tubes were vortexed for 30 seconds, centrifuged in a microfuge at top speed (13.2 k rpm) for 5 minutes. The supernatant was collected. The pH was neutralized to about 3.5 with ammonium acetate buffer. The sample (45 μl) was transferred to a glass LC/MS/MS vial (Kimble, 11 mm, 1.5 ml) and 5 μl of an internal standard was added to a final concentration of 500 ng/ml. LC/MS/MS analysis was performed in Chemistry Department of San Diego State University.
LC/MS/MS protocol: Thermo-Finnigan TSQ Quantum triple sector mass spectrometer with electrospray (ESI) ionization was used to analyze the samples. The operation conditions were: Mobile phase of pH 3.00 water/formic acid: acetonitrile-methanol (45%:5%:50% by volume); Thermo-Keystone Betabasic C-18 column (2.1 mm×50 mm) operated at 0.100 mL/min.
Many proteases responsible for degrading EPI compounds are located in […]. Lysozymes typically have an acidic pH (about 4.8-5), whereas the pH in tissue homogenates that were prepared was higher (kidney, pH 6.8; liver, pH 6.6; and lung, pH 7.5). To test the effect of tissue homogenates closer to physiological conditions, the pH was lowered to about 6 by adding acetic acid to the tissue homogenates and compound stability was tested. FIG. 2 depicts the stability of compounds 1 and 3 at different pH. […] The pH-dependent degradation of compound 3 was especially evident in kidney homogenates.
FIG. 4 is a bar graph depicting the stability of compound 3 in the supernatant and pellet of kidney tissue homogenates.

C[C@H]1COc2c(N3CCN(C)CC3)c(F)cc3c(=O)c(C(=O)O)cn1c23 [Levofloxacin, reference compound]
Levo (MIC) (Citrobacter freundii 13; levofloxacin alone): 64 µg/mL
Levo (MIC) (Enterobacter cloacae 25; levofloxacin alone): 2 µg/mL
Levo (MIC) ([1]; levofloxacin alone): 128 µg/mL
Levo (MIC) (Klebsiella pneumonia 79; levofloxacin alone): 64 µg/mL
Levo (MIC) (Klebsiella pneumonia 73; levofloxacin alone): 64 µg/mL

NCCC[C@H](N)C(=O)N[C@H](CCc1ccccc1)C(=O)Nc1ccc2ncccc2c1 [Compound 7, 2-(S),5-Diamino-pentanoic acid [3-phenyl-1-(R)-(quinolin-6-ylcarbamoyl)-propyl]-amide]
serum PK profile after 2-hour IV infusion ([2]; 10 mg/kg, in words): best serum PK profile
clearance ([2]; serum, 2-hour IV infusion, total dose 10 mg/kg, two-compartment model): 6.5 mL/min/kg
concentration at 6 h ([3]; rat kidney): 960 ng/mL
2 h/4 h Ratio ([3]; rat kidney): 57.37
concentration at 2 h ([3]; rat kidney): 55400 ng/mL
concentration at 6 h ([3]; rat liver): 270 ng/mL
2 h/4 h Ratio ([3]; rat liver): 29.85
concentration at 2 h ([3]; rat liver): 7960 ng/mL
concentration at 6 h ([3]; rat lung): 3170 ng/mL
2 h/4 h Ratio ([3]; rat lung): 4.11
concentration at 2 h ([3]; rat lung): 13000 ng/mL
tissue levels and clearance from tissues after 2-hour IV infusion ([3]; rat, in words): cleared from tissues relatively fast

NCCC[C@H](N)C(=O)N[C@H](CCc1ccccc1)C(=O)Nc1ncc(Cl)cc1Cl [Compound 36, 2-(S),5-Diamino-pentanoic acid [1-(R)-(3,5-dichloro-pyridin-2-ylcarbamoyl)-3-phenyl-propyl]amide]
stability in rat serum (PAM1723): unstable in rat serum

NCCC[C@H](N)C(=O)N[C@H](CCc1ccccc1)C(=O)Nc1cccc(-c2ccccc2)c1 [Compound 26]
EPI MPC8 after 4 hours at 37° C., Frosen Human serum (PAM1723; Table 4, human serum): 2.5 µg/mL
EPI MPC8 after 4 hours at 37° C., Frozen Rat serum (PAM1723; Table 4, rat serum): 2.5 µg/mL
EPI MPC8 after 4 hours at 37° C., Saline (PAM1723; Table 4, saline): 2.5 µg/mL
EPI MPC8 after incubation (h) with rabbit kidney supernatant at 37° C. ([4]; 0 h): 80 µg/mL
EPI MPC8 after incubation (h) with rabbit kidney supernatant at 37° C. ([4]; 0.5 h): >80 µg/mL
EPI MPC8 after incubation (h) with rabbit kidney supernatant at 37° C. ([4]; 1 h): >80 µg/mL
EPI MPC8 after incubation (h) with rabbit kidney supernatant at 37° C. ([4]; 2 h): >80 µg/mL
EPI MPC8, Saline (2 hours) ([4]; saline control of rabbit kidney supernatant bioassay, 37° C.): 2.5 µg/mL

CC[C@H]1OC(=O)[C@H](C)[C@@H](O[C@H]2C[C@@](C)(OC)[C@@H](O)[C@H](C)O2)[C@H](C)[C@@H](O[C@@H]2O[C@H](C)C[C@H](N(C)C)[C@H]2O)[C@](C)(O)C[C@@H](C)CN(C)[C@H](C)[C@@H](O)[C@]1(C)O [Azithromycin, reference compound]
Azi (MIC) (Citrobacter freundii 13; azithromycin alone): 8 µg/mL
Azi (MIC) (Enterobacter cloacae 25; azithromycin alone): 16 µg/mL
Azi (MIC) ([1]; azithromycin alone): 32 µg/mL
Azi (MIC) (Klebsiella pneumonia 79; azithromycin alone): 64 µg/mL
Azi (MIC) (Klebsiella pneumonia 73; azithromycin alone): 16 µg/mL

CN(C(=O)[C@@H](CCc1ccccc1)NC(=O)[C@@H](N)CCCN)c1cnc2ccccc2c1 [Compound 18, 2-(S),5-Diamino-pentanoic acid [1-(R)-(methyl-quinolin-3-yl-carbamoyl)-3-phenyl-propyl]amide]
stability in rat serum (PAM1723): unstable in rat serum

NCCC[C@@H](N)C(=O)N[C@@H](CCc1ccccc1)C(=O)Nc1cnc2ccccc2c1 [Compound 4, 2-(R),5-Diamino-pentanoic acid [3-phenyl-1-(S)-(quinolin-3-ylcarbamoyl)-propyl]-amide]
Antibiotic (levofloxacin) MIC in the presence of EPI ([5]; EPI 0 μg/ml (levofloxacin alone)): 2 µg/mL
Antibiotic (levofloxacin) MIC in the presence of EPI ([5]; EPI 1.25 μg/ml): 2 µg/mL
Antibiotic (levofloxacin) MIC in the presence of EPI ([5]; EPI 5 μg/ml): 2 µg/mL
Antibiotic (levofloxacin) MIC in the presence of EPI ([5]; EPI 10 μg/ml): 0.5 µg/mL
Antibiotic (levofloxacin) MIC in the presence of EPI ([5]; EPI 20 μg/ml): 0.06 µg/mL
Antibiotic (levofloxacin) MIC in the presence of EPI ([5]; EPI 40 μg/ml): 0.06 µg/mL
Antibiotic (levofloxacin) MIC in the presence of EPI ([5]; EPI 80 μg/ml): 0.03 µg/mL
Antibiotic (levofloxacin) MIC in the presence of EPI ([5]; EPI […]): 2 µg/mL
MPC8 ([5]; EPI concentration necessary to increase susceptibility to levofloxacin eight-fold): 20 µg/mL
tissue levels at 6 hours after IV injection [6]: relatively high levels
stability in supernatant of rat kidney tissue homogenates [7]: neither compound 1 nor compound 4 show any instability

L-phenylalanine-L-ornithine-α-naphtylamide [MC-207110, reference compound]
EPI MPC8 after 4 hours at 37° C., Frozen Rat serum (PAM1723; Table 3, 50% rat serum): >80

NCCC[C@H](N)C(=O)N[C@H](CCc1ccccc1)C(=O)Nc1cc2ccccc2nn1 [Compound 39, 2-(S),5-Diamino-pentanoic acid [1-(R)-(cinnolin-3-ylcarbamoyl)-3-phenyl-propyl]-amide]
stability in rat serum (PAM1723): unstable in rat serum

NCCC[C@H](N)C(=O)N[C@H](CCc1ccccc1)C(=O)Nc1cnc2ccccc2n1 [Compound 19, 2-(S),5-Diamino-pentanoic acid [3-phenyl-1-(R)-(quinoxalin-2-ylcarbamoyl)-propyl]-amide]
stability in rat serum (PAM1723): unstable in rat serum

NCCC[C@H](N)C(=O)N[C@H](CCc1ccccc1)C(=O)Nc1ccc2cccnc2c1 [Compound 28, 2-(S),5-Diamino-pentanoic acid [3-phenyl-1-(R)-(quinolin-7-ylcarbamoyl)-propyl]-amide]
stability in rat serum (PAM1723): unstable in rat serum

NCCC[C@H](N)C(=O)N[C@@H](CCc1ccc(F)cc1)C(=O)Nc1cnc2ccccc2c1 [Compound 9, 2-(S),5-Diamino-pentanoic acid [3-(4-fluoro-phenyl)-1-(S)-(quinolin-3-ylcarbamoyl)-propyl]amide]
stability in rat serum (PAM1723): unstable in rat serum
